From patent publication US9173875B2, “Treatment for nicotine-induced lung disease using peroxisome proliferator-activated receptor gamma agonists” (Los Angeles Biomedical Research Institute at Harbor-UCLA …, priority 2006, dated 2015)
Like-named read-outs stand apart in the source and are kept apart here.

Columns and labels:
WI38 cells [1] = tested on: WI38 cells
Method: Lipogenic and myogenic status of cultured WI38 cells was assessed by simultaneous staining for lipid droplets and -SMA. Lipids were stained using oil red 0 staining, and -SMA expression was assessed by using anti-SMA (cat. no. A2547, 1:1,000, mouse monoclonal IgG2, Sigma) primary antibody. […] At the end of the experimental period, slides were fixed in freshly prepared 4% paraformaldehyde. Fixed slides were washed in PBS, blocked with 3% normal goat serum (Jackson Immunoresearch Lab) in PBS for 30 min at room temperature to block nonspecific binding, and then incubated in primary antibody overnight at 4° C. Secondary biotinylated anti-mouse IgG2 was used at 1:200 dilution for 30 min. The slides were then washed 3× with PBS and with double-distilled water 2× and were then incubated with oil red 0 (Sigma) for 15-30 min. Slides were rinsed 3× for 5 min and then mounted and coverslipped with Vestashield mounting medium with 4′,6′-diamidino-2-phenylindole (Vector Laboratories) visualization under a fluorescence microscope.

ATII cells [2] = assay: Phospholipid synthesis ([3H]choline incorporation into saturated phosphatidylcholine) by ATII cells after in utero nicotine; type: in vivo, Sprague-Dawley rat; conditions: nicotine 1 mg/kg in utero; vs control, P<0.05, n=6
Method: Incorporation of [methyl-3H]choline chloride (NEN Dupont) into saturated phosphatidylcholine was determined in monolayers of cultured explants and ATII cells. […] After incubation, explants and cells were washed three times with ice-cold PBS. The explants and the scraped cells were thoroughly homogenized, and the cellular lipids were extracted with chloroform-methanol (2:1) (Bligh and Dyer (1959) Can. J. Biochem. Physiol., 37: 911-917). The organic phase was dried under a stream of nitrogen at 60° C., resuspended in 0.5 ml of carbon tetrachloride containing 3.5 mg of osmium tetroxide, and left at room temperature for 15 min. The reaction mixture was redried under nitrogen and resuspended in 70 μl of chloroform-methanol (9:1, vol/vol). The lipid extracts were transferred to silica gel plates (Kodak, Rochester, N.Y.) and developed in a chloroform-methanolwater (65:25:4) solvent system. Pure dipalmitoyl phosphatidylcholine was used as the chromatographic standard. The developed plates were stained with bromothymol blue, blotted, and vacuum dried for 5 min at 90° C. Chromatogram spots corresponding to the migration of saturated phosphatidylcholine were scraped from the plates and counted by liquid scintillation spectrometry. The amounts of [methyl^3H]choline chloride incorporated into saturated phosphatidylcholine were expressed as disintegrations per minute per milligram of protein.

WI38 cells [3] = conditions: 7 days, vs control; for change in PTHrP receptor mRNA expression: means±SE
WI38 cells [4] = assay: Triglyceride uptake assay ([3H]triolein) in WI38 cells; type: cell-based, human
Method: (§1) The human embryonic cell line WI38 was obtained from American Type Culture Collection (Rockville, Md.). Cells were grown in MEM plus 10% FBS at 37° C. in six-well plates, four-well slides, and 60- and 100-mm culture dishes as needed.
The method used to quantitate triglyceride uptake by fetal rat lung fibroblasts has been described previously (Torday et al. (1995) Biochim Biophys Acta 1254: 198-206). Briefly, culture medium was replaced with DMEM containing 20% adult rat serum mixed with [3H]triolein (5 μCi/ml). The cells were incubated at 37° C. in 5% CO2+balance air for 4 h. At the termination of the incubation, the medium was decanted, the cells were rinsed twice with 1 ml of ice-cold MEM, and the cells were removed from the culture plate after a 5- to 10-min incubation with 2 ml of a 0.05% trypsin solution. An aliquot of the cell suspension was taken for protein assay (Bradford (1976) Anal Biochem 72: 248-254), and the remaining cell suspension was extracted for neutral lipid content.

whole lung tissue = conditions: nicotine 2 mg/kg i.p. once daily to dam, e6 to e20
ATII cells [5] = tested on: ATII cells
WI38 cells [6] = assay: Western blot of lipogenic and myogenic marker proteins in WI38 cells (nicotine with or without lipogenic pathway agonists); type: cell-based, human; conditions: nicotine 1×10^−9, 7 days
Method: as §1
Western blotting was performed with modifications of methods described previously (Ayad and Wong (1998) Crit. Care Med 26: 1277-1282). […] Equal amounts of the protein (25 μg) from the supernatant were dissolved in electrophoresis sample buffer and were subjected to SDS-PAGE (4-12% gradient) followed by electrophoretic transfer to a nitrocellulose membrane. Nonspecific binding of antibody was blocked by washing with Tris-buffered saline (TBS) containing 5% milk for 1 h. The blot was then subjected to two brief washes with TBS plus 0.5% Tween 20, incubated in TBS plus 0.1% Tween 20 and the specific primary antibodies (PPAR 1:2,000, Alexis Biochemicals, San Diego, Calif.; -SMA 1:50,000, Sigma; ADRP 1:3,000, a kind gift from Dr. Constantine Londos, National Institute of Diabetes and Digestive and Kidney Diseases) overnight at 4° C. Blots were then washed in TBS plus 0.1% Tween 20 and then incubated for 1 h in secondary antibody, washed, and developed with a chemiluminescent substrate (ECL; Amersham, Arlington Heights, Ill.) following the manufacturer's protocol.

ATII cells [7] = tested on: ATII cells; remark: listed apart in the source
Method: Isolated ATII cells were cultured in DMEM+10% FBS in 6- and 96-well plates, 100-mm dishes, and T-75 flasks, as needed, and maintained at 37° C. in a humidified incubator containing 5% CO2-95% air. At 80-90% confluence, cells were processed for cell proliferation, differentiation, and metabolic studies (see below).
Briefly, [1,2-^13C2]glucose was purchased with >99% enrichment for the specified carbon positions from Isotech (Miamisburg, Ohio). Lung ATII cells were isolated from embryonic day 20 pups from specified treatment groups and cultured in T-75 tissue culture flasks. […] The [^13C]glucose label is readily incorporated into various metabolites in mammalian cells, including ribonucleic acid (through ribose synthesis), lactate (through glycolysis), glutamate (through the tricarboxylic acid cycle), and palmitate (through the formation of acetyl-CoA). As the molecular weight (atomic mass unit) of these molecules increases on incorporation of the heavier ^13C atoms derived from [1,2,^13C2]glucose, they can be separated and quantitatively analyzed by gas chromatography-mass spectrometry (MS) on the basis of changes in their mass-to-charge ratios (m/z). […]
Fatty acids in the cell culture medium were extracted by saponification of the TRIzol cell extract after removal of the RNA-containing supernatant. […] Palmitate was monitored at ion cluster m/z 270. […]

fetal ATII cells = assay: Ex vivo ATII cell proliferation assay (tetrazolium dye) after in utero nicotine; design: species or system Sprague-Dawley rat; conditions: nicotine 1 mg/kg in utero; vs control, P<0.05, n=6
Method: Pathogen-free timed (embryonic day 0=day of mating) pregnant Sprague-Dawley rats (200-250 g body wt) were obtained from Charles River (Hollister, Calif.) at embryonic day 3 and allowed to acclimatize until embryonic day 6. […] The fetuses were extracted by cesarean section, and the lungs were snap frozen for later analysis or processed for ATII cell or fibroblast culture. […] Louis, Mo.; 0.25 mg/kg). All studies were approved by the Los Angeles Biomedical Research Institute Institutional Review Board and were conducted in accordance with the National Institutes of Health Guide for the Care and Use of Laboratory Animals. ATII cells were isolated using differential adherence in monolayer culture, as described previously (Battenburg et al. (1990) Biochim. Biophys. Acta 960: 441-456). Briefly, three to five […] used per preparation. The fetuses were delivered via cesarean section, and fetal lungs were placed in Hanks' balanced salt solution without calcium and magnesium. […] A Teflon stirring bar was used to further dissociate the lungs by mechanical disruption of the tissue during incubation in a 37° C. water bath. After the tissue was dispersed into a unicellular suspension, the cells were pelleted at 500 g for 10 min at room temperature in a 50-ml polystyrene centrifuge tube. […] The cell suspension was then added to 75-cm^2 (T-75) culture flasks for 30-60 min to allow for differential adherence of lung fibroblasts. The unattached cells were then transferred to another T-75 culture flask for an additional 60 min. After this second culture period, the medium and nonadherent cells were removed from the flask and diluted with 1 vol of culture medium. This diluted suspension was cultured overnight in a T-75 culture flask at 37° C. in a CO2 incubator to allow the ATII cells to adhere. […] According to the manufacturer's protocol, cell proliferation was determined by the tetrazolium dye assay, which is based on the conversion of a tetrazolium salt to a red formazan product by living cells (Cell Proliferation Assay, Promega).

fetal rat lung explants = assay: In vitro ATII cell proliferation in lung explants (PCNA and SP-C labeling); type: cell-based; conditions: nicotine 24 h; P<0.05, n=4
Method: Explants derived from three to five litters of rats were used for each experiment during the course of the studies. Lungs were harvested from fetal rats under sterile conditions. The lung tissue was chopped into −1-mm cubes and incubated in 0.5 ml of Waymouth's MB-252/1 medium containing penicillin (100 U/ml)-streptomycin (100 U/ml) and Fungizone (2.5 μg/ml) in six-well plates while rocking on an oscillating platform (3 cycles/min) in 5% CO2-95% air at 37° C. The explants were allowed to attach for 1-2 h.
Cultured ATII cells or explants were treated with nicotine under various experimental conditions (see below), and cell proliferation was determined by Cell Proliferation Assay (Promega) or dual PCNA and SP-C labeling, respectively (see above).

WI38 cells [8] = assay: Reversal of nicotine-induced LIF-to-MYF transdifferentiation in WI38 cells, Western analysis
Method: The human embryonic cell line WI38 was obtained from the American Type Culture Collection (Rockville, Md.). Cells were grown in minimum essential medium (MEM) +10% fetal bovine serum at 37° C. in six-well plates, two well slides, and 60-mm and 100-mm culture dishes, as needed. […] Subsequently, the cells were treated with rosiglitazone (RGZ) (1×10^−5 M) (a PPARγ agonist), PTHrP (5×10^−7 M), or DBcAMP (1×10^−5 M) for 7 days, and the expression of PTHrP receptor, PPARγ, ADRP, calponin, and cSMA was determined by Western analysis and immunohistochemistry. Simultaneously, fibroblast function was characterized by measuring their capacity to take up triglycerides. Some experiments were performed in the presence of a specific PPARγ antagonist, GW9662. Medium containing fresh chemicals was added daily, and at the end of the experimental period the cells were processed as needed.
For Western blotting, cells were lysed using an extraction buffer [10 mM tris (hydroxymethyl) aminomethane (Tris, pH 7.5), 0.25 M sucrose, 1 mM EDTA, 5 mM benzamidine, 2 mM phenylmethylsulfonyl fluoride, and 10 (j.tg/ml each of pepstatin A, aprotinin, and leupeptin], and centrifuged at 140 g for 10 min (4° C.). Equal amounts of the protein (25 μg) from the supernatant were dissolved in electrophoresis sample buffer and were subjected to sodium dodecyl sulfate-polyacrylamide (4%-12% gradient) gel electrophoresis (SDS-PAGE) followed by electrophoretic transfer to a nitrocellulose memane. The nonspecific binding of antibody was blocked by washing with Tris-buffered saline (TBS) containing 0.1% Tween 20 (TBST) and 5% milk for 1 h. The blot was then subjected to two brief washes with TBST plus 0.5% Tween 20, incubated in TBST plus 0.1% Tween 20 and the specific primary antibodies (PPARγ 1:2000, Alexis Biochemicals, San Diego, Calif.; cSMA 1:50,000, Sigma, St. Louis, Mo.: ADRP 1:3000) overnight at 4° C. Blots were then washed in TBST plus 0.1% Tween 20 and then incubated for 1 h in secondary antibody, washed, and developed with a chemiluminescent substrate [enhanced chemiluminescence (ECL); Amersham, Arlington Heights, Ill.] following the manufacturer's protocol. The densities of the specific protein bands were quantified using a scanning densitometer (Eagle Eye II still video system, Stratagene, La Jolla, Calif.).

ATII cells [9] = conditions: nicotine 24 h
[10] = nicotine 1×10^6 M (so in the source)
[11] = 7d nicotine-only group, 7 days after nicotine 10^−9 M

CN1CCCC1c1cccnc1 (stereo not drawn) [nicotine]
lipid droplet and α-SMA staining (WI38 cells [1]): decreased lipid staining and increased -SMA staining | [3H]choline incorporation into saturated phosphatidylcholine (ATII cells [2]): significantly increased | change in PTHrP receptor mRNA expression (WI38 cells [3]; [10]): 40±3% | change in ADRP mRNA expression (WI38 cells [3]; [10]): −47±4% | change in PPAR mRNA expression (WI38 cells [3]; [10]): −37±3% | change in α-SMA mRNA expression (WI38 cells [3]; [10]): +140±5% | change in PTHrP receptor mRNA expression (WI38 cells [3]; nicotine 1×10^−9 M): −33±8% | change in ADRP mRNA expression (WI38 cells [3]; nicotine 1×10^−9 M): −41±8% | change in PPAR mRNA expression (WI38 cells [3]; nicotine 1×10^−9 M): −26±7% | change in α-SMA mRNA expression (WI38 cells [3]; nicotine 1×10^−9 M): +38±4% | decrease in triglyceride uptake (WI38 cells [4]; nicotine 1×10^−9 M for 24 h): ~30% | decrease in triglyceride uptake (WI38 cells [4]; nicotine 1×10^−9 M for 7 days): ~50% | αSMA mRNA expression in whole lung (whole lung tissue): significant increase | PTHrP receptor, PPARγ and ADRP mRNA expression in whole lung (whole lung tissue; vs controls, p<0.05): significant decrease | [13C]glucose labeling of the acetyl-CoA pool (ATII cells [5]; in utero nicotine): modest increase | de novo palmitate synthesis as a function of total palmitate (ATII cells [5]; rat, in vivo): almost doubled | ribose synthesis via the nonoxidative transketolase pathway (ATII cells [5]; rat, in vivo): significant decrease | ribose synthesis via the oxidative glucose-6-phosphate dehydrogenase pathway (ATII cells [5]; rat, in vivo): significant increase | change in ADRP protein level (WI38 cells [6]): −20±3% | change in PPAR protein level (WI38 cells [6]): −24±2% | change in PTHrP receptor protein level (WI38 cells [6]): −31±7% | change in α-SMA protein level (WI38 cells [6]): +100±5% | de novo palmitate synthesis or [13C]glucose labeling of acetyl-CoA (ATII cells [7]): did not result in a significant change | ribose synthesis via the oxidative or the nonoxidative pathway (ATII cells [7]): did not alter | ATII cell proliferation, tetrazolium dye assay (fetal ATII cells): almost twofold increase | ATII cell proliferation in lung explants (fetal rat lung explants): significantly increased | αSMA expression vs untreated controls (WI38 cells [8]; 7 days after stopping nicotine (Example 3)): significantly higher | expression of PTHrP receptor, PPARγ and ADRP vs untreated controls (WI38 cells [8]; [11]): significantly lower | expression of αSMA and calponin vs untreated controls (WI38 cells [8]; [11]): significantly higher | PTHrP receptor expression vs untreated controls (WI38 cells [8]; nicotine 10^−9 M 7 days, then 7 days without nicotine (Example 3)): significantly lower | expression of αSMA and calponin (WI38 cells [8]; nicotine 7 days, p<0.001 vs control, n=3): significant increases | expression of PTHrP receptor, PPARγ and ADRP (WI38 cells [8]; nicotine 7 days, vs control, n=3): significant decreases | ATII cell proliferation, direct stimulation in vitro (ATII cells [9]): no effect
